Measured values published in patent publication US11957696B2 (Propella Therapeutics, Inc., priority 2021, dated 2024).
Like-named read-outs stand apart in the source and are kept apart here.

Legend:
[1] = cynomolgus monkey, in vivo
Method: Test system/animals: gonadally intact, sexually mature, male cynomolgus monkeys. Administration of Test Materials: The vehicle control and test article were administered once every 2 weeks for 13 weeks (Days 1, 15, 29, 43, 57, and 71) during the study via intramuscular injection. […] The dose levels were 20, 60, or 200 mg/kg/dose and administered at a dose volume of 0.10, 0.15, and 0.25 mL/kg/site, respectively. The control group received the vehicle control in the same manner as the treated groups at a dose volume of 0.25 mL/kg/site.
The vehicle control and test article formulations were administered via bolus intramuscular injection into the epaxial muscles of the lumbar back. Animals at 0 and 200 mg/kg/dose were dosed in 4 dose sites, animals at 20 mg/kg/dose were dosed in 1 dose site, and animals at 60 mg/kg/dose were dosed in 2 dose sites. The needle (23-gauge, ⅝-inch) was inserted perpendicular to the skin surface. The location of the injection site was documented for each dose. In addition, each injection site was marked with a single large dot at the exact site of needle insertion, for purposes of erythema and swelling evaluation. Each injection site was remarked at least once weekly and prior to necropsy.
Individual doses were based on the most recent body weights. Formulations were warmed at 35° C. (±5° C.) for at least 1 hour prior to dosing.
The following parameters and endpoints were evaluated in this study: mortality, clinical signs, body weights, body weight gains, ophthalmology and electrocardiographic examinations, clinical pathology parameters (hematology, coagulation, clinical chemistry, and urinalysis), LH and ACTH analyses, toxicokinetic parameters, gross necropsy findings, organ weights, and histopathologic examinations. Statistical analyses were performed using Group Pair-wise Comparisons (general ANOVA).

ACTH = ACTH analysis (plasma) in 13-week study; assay type: in vivo, cynomolgus monkeys
Method: Sample Collection for ACTH Analysis (Plasma): Blood samples (approximately 2.5 mL) were collected from all animals via the femoral vein for determination of the plasma concentrations of ACTH. The animals were fasted prior to blood collection except one deviation.

With CCCCCCCCCC(=O)O[C@H]1CC[C@@]2(C)C(=CC[C@@H]3[C@@H]2CC[C@]2(C)C(c4cccnc4)=CC[C@@H]32)C1 [Abiraterone Decanoate, abiraterone decanoate] the adrenal gland changes [1] was “minimal to moderate cortical hypertrophy”, the clinical observations [1] was “swelling and/or nodules at the injection sites” and the “findings in the lung” value [1] was “minimal to moderate granulomatous inflammation”. For the same molecule, the “ophthalmology findings, qualitative or quantitative ECG parameters” value [1] was “no effect”, the “test article-related changes in the epididymis” value [1] was “mild to severe reduced luminal sperm and/or minimal to mild increased germ cell debris” and the “test article-related changes in the prostate gland” value [1] was “mild to moderate prostate gland atrophy”. The “test article-related changes in the seminal vesicle” value [1] was “minimal to mild seminal vesicle atrophy”, the “test article-related changes in the testes” value [1] was “minimal to moderate germ cell depletion and minimal to mild Leydig cell hypertrophy” and the “test article-related changes in the thymus” value [1] was “minimal to mild increased lymphocytes”. The “test article-related findings in the mammary gland” value [1] was “minimal to mild lobular and/or duct hyperplasia”, the “microscopic findings at terminal necropsy” value ([1]; 20 mg/kg) was “test article-related microscopic findings” and the albumin concentration ([1]; 20 mg/kg/day) was “minimal decreases”. For the same molecule, the “microscopic findings at terminal necropsy” value ([1]; 60 mg/kg) was “test article-related microscopic findings”, the “mean corpuscular volume (MCV) and mean corpuscular hemoglobin (MCH)” value ([1]; 200 mg/kg) was “minimal decreases” and the “red cell distribution width (RDW)” value ([1]; 200 mg/kg) was “minimal increase”. For the same molecule, the “highest non-severely toxic dose” value ([1]; male, 13 weeks) was 60 mg/kg/dose, the “ACTH fold change of treated group mean relative to pretreatment (Day −1) mean” value (ACTH; 20 mg/kg/dose, Day 8) was 1.72× and the “ACTH fold change of treated group mean relative to pretreatment (Day −1) mean” value (ACTH; 20 mg/kg/dose, Day 15) was 2.63×. For the same molecule, the “ACTH fold change of treated group mean relative to pretreatment (Day −1) mean” value (ACTH; 20 mg/kg/dose, Day 78) was 2.30×*, the “ACTH fold change of treated group mean relative to pretreatment (Day −1) mean” value (ACTH; 20 mg/kg/dose, Day 85) was 1.89×* and the “ACTH fold change of treated group mean relative to pretreatment (Day −1) mean” value (ACTH; 60 mg/kg/dose, Day 8) was 2.55×*. For the same molecule, the “ACTH fold change of treated group mean relative to pretreatment (Day −1) mean” value (ACTH; 60 mg/kg/dose, Day 15) was 2.35×*, the “ACTH fold change of treated group mean relative to pretreatment (Day −1) mean” value (ACTH; 60 mg/kg/dose, Day 78) was 1.33×* and the “ACTH fold change of treated group mean relative to pretreatment (Day −1) mean” value (ACTH; 60 mg/kg/dose, Day 85) was 1.36×*. The “ACTH fold change of treated group mean relative to pretreatment (Day −1) mean” value (ACTH; 200 mg/kg/dose, Day 8) was 4.90×*, the “ACTH fold change of treated group mean relative to pretreatment (Day −1) mean” value (ACTH; 200 mg/kg/dose, Day 15) was 5.14×* and the “ACTH fold change of treated group mean relative to pretreatment (Day −1) mean” value (ACTH; 200 mg/kg/dose, Day 78) was 4.65×*. The “ACTH fold change of treated group mean relative to pretreatment (Day −1) mean” value (ACTH; 200 mg/kg/dose, Day 85) was 4.66×* and the ACTH concentrations (ACTH; males at ≥20 mg/kg/dose) was “increases”.
